# Assay results as given in patent EP0173480A2, “The antiviral use of phyllanthostatins” (priority 1984, dated 1986).
# Entries after “also recorded” stand apart in the source; their conditions may differ. Like-named read-outs stand apart in the source and are kept apart here.
# Tests used:
# [1] = system: herpes simplex virus type 2 (HSV-2, MS); assay: Inhibition of virus replication, virus yield by plaque method; assay type: cell-based; settings: for ED90 MS: HSV-2 in Vero cells, drug concentration reducing virus titers by 90%
# [2] = system: herpes simplex virus type 1 (HSV-1, McIntyre); assay: as above; assay type: cell-based; design: ED90 McIntyre: unit not given here; settings: for HSV-1 virus yield: Vero cells; for ED90 McIntyre: HSV-1 in Vero cells, drug concentration reducing virus titers by 90%, unit only in b38
# [3] = system: E.R.; settings: 50 pg of test compound (so in the source); for zone of cytotoxicity: first figure of the cell; for zone of antiviral activity (viral plaque inhibition): second figure of the cell
# [4] = system: Vero cells; settings: monkey
# [5] = system: HSV-1; assay: Cell culture antiviral activity, agar-well zones of cytotoxicity / plaque inhibition; settings: second figure of the cell, 50 pg of test compound (so in the source)
# [6] = system: Herpes Simplex virus type 2 (HSV-2, strain 35D); assay: Genital HSV-2 infection of female mice, intravaginal treatment, survival; assay type: in vivo; settings: for mice survived (of 14): study of Table 3; for %S (percent survivors) / MDD (mean day of death): N 14; for protection of mice from lethal genital HSV-2 infection, summary in words: intravaginally from one hour after inoculation, 3 times daily
# [7] = system: Coe; assay: Cell culture antiviral activity, agar-well zones of cytotoxicity / plaque inhibition; settings: second figure of the cell, 50 pg of test compound (so in the source)
# [8] = system: coxsackie A21; assay type: cell-based; design: ED90 Col: unit not given beside the values; settings: for coxsackie A21 virus yield: ML cells
# [9] = system: VSV (vesicular stomatitis virus); assay type: cell-based; design: ED90 VSV: unit not given beside the values; settings: Vero cells
# [10] = system: Vacc.; settings: 50 pg of test compound (so in the source); for zone of cytotoxicity: first figure of the cell; for zone of antiviral activity (viral plaque inhibition): second figure of the cell
# [11] = system: coxsackie B3 virus (Nancy Strain); assay: Inhibition of virus replication, virus yield in Vero cells; assay type: cell-based
# [12] = system: HA-1; assay: Cell culture antiviral activity, agar-well zones of cytotoxicity / plaque inhibition; settings: 50 pg of test compound (so in the source); for zone of cytotoxicity: first figure of the cell; for zone of antiviral activity (viral plaque inhibition): second figure of the cell
# [13] = system: HSV-2; assay: as above; settings: second figure of the cell, 50 pg of test compound (so in the source)
# [14] = system: PR-8; settings: 50 pg of test compound (so in the source); for zone of cytotoxicity: first figure of the cell; for zone of antiviral activity (viral plaque inhibition): second figure of the cell
# [15] = system: Herpes Simplex virus type 2 (HSV-2, strain 35D); assay: Genital HSV-2 infection of female mice, virus titers in vaginal secretions; assay type: in vivo; settings: for Mean virus titer in swabs of mice which shed virus / Nv/Nt, swabs with virus/total swabs: 8.0 x 10^4 PFU;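 as to Mean virus titer in swabs of mice which shed virus: titer expressed as log PFU per ml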
# [16] = 8.0 x 10^3 PFU/0.1 ml, mg/ml cell empty (1 mg/ml in upper section)
# [17] = 8.0 x 10^4 PFU/0.1 ml, 1 mg/ml intravaginally
# [18] = day 1 after HSV-2 inoc., 0.5 mg/ml
# [19] = day 1 after HSV-2 inoc., 1 mg/ml
# [20] = day 2 after HSV-2 inoc., 0.5 mg/ml
# [21] = day 2 after HSV-2 inoc., 1 mg/ml
# [22] = day 3 after HSV-2 inoc., 0.5 mg/ml
# [23] = day 3 after HSV-2 inoc., 1 mg/ml
# [24] = day 4 after HSV-2 inoc., 0.5 mg/ml
# [25] = day 4 after HSV-2 inoc., 1 mg/ml
# [26] = day 7 after HSV-2 inoc., 0.5 mg/ml
# [27] = day 7 after HSV-2 inoc., 1 mg/ml
# [28] = second study, 8.0 x 10^4 PFU in 0.1 ml, 0.5 mg/ml
# [29] = higher drug concentrations (5 and 50 µg/ml) compared with 0.5
compound,measurement,setting,value
Phyllanthostatin 3,HSV-2 virus yield,"[1]; Vero cells, 50 µg/ml",slight reduction in yields
same,HSV-1 virus yield,[2]; 50 µg/ml,slight reduction in yields
COC(=O)C1CCC2C(C1)OC1(CC(OC(=O)/C=C/c3ccccc3)C(C)CO1)C21CO1 (stereo not shown) [Phyllanthocin],zone of cytotoxicity,[3],0/0
same,zone of antiviral activity (viral plaque inhibition),[3],0/0
same,times less cytotoxic than phyllanthoside or phyllanthostatin I,[4],2-5
same,ID50 Vero 72 hrs.,"[4]; vero cells, 72 h",5.91 mg per ml
same,zone of antiviral activity (viral plaque inhibition),[5],3
same,mice survived (of 14),[6]; 8.0 x 10^3 PFU in 0.1 ml,four
same,%S (percent survivors),[6]; [16],29%
same,MDD (mean day of death),[6]; [16],8.5 days
same,mice survived (of 14),[6]; 8.0 x 10^4 PFU in 0.1 ml,did not protect mice from lethal infection
same,%S (percent survivors),[6]; [17],14%
same,MDD (mean day of death),[6]; [17],8.0 days
same,"protection of mice from lethal genital HSV-2 infection, summary in words",[6],devoid of antiviral activity
same,zone of antiviral activity (viral plaque inhibition),[7],0/0
same,ED90 MS,[1],7.99 µg per ml
same,ED90 MS,[1]; 1440 min,7.9939 µg per ml
same,HSV-2 yields reduced by,"[1]; Vero cells, 5 µg per ml",greater than 1 log
same,HSV-2 virus yield,"[1]; Vero cells, 5 µg/ml",reductions in yields; also recorded: inhibitory
same,HSV-2 virus yield,"[1]; Vero cells, 50 µg/ml",reduced yields of all viruses; also recorded: reduction in titers of all viruses
same,coxsackie A21 virus yield,[8]; 5 µg/ml (below 5 µg per ml),non-inhibitory; also recorded: did not reduce the yields; also recorded: not affected; also recorded: not for VSV or Coxsackie A-21
same,coxsackie A21 virus yield,[8]; 50 µg/ml,reduced yields of all viruses; also recorded: reduction in titers of all viruses
same,ED90 Col,"[8]; […], unit not given, NS - not significant",61.7506
same,VSV virus yield,[9]; 5 µg/ml (below 5 µg per ml),non-inhibitory; also recorded: not affected; also recorded: not for VSV or Coxsackie A-21
same,VSV virus yield,[9]; 50 µg/ml,reduced yields of all viruses; also recorded: reduction in titers of all viruses
same,ED90 VSV,"[9]; reduces virus yield by 90%, unit not given, NS - not significant",8.668
same,zone of cytotoxicity,[10],0
same,zone of antiviral activity (viral plaque inhibition),[10],4
same,coxsackie B3 virus yield,[11]; 5 µg per ml,inhibitory for coxsackie B3 replication
same,zone of cytotoxicity,[12],0/0
same,zone of antiviral activity (viral plaque inhibition),[12],0/0
same,ED90 McIntyre,[2],7.1380
same,ED90 McIntyre,[2]; listed as phyllanthocin,7.14
same,HSV-1 virus yield,[2]; 5 µg/ml,only modestly inhibitory; also recorded: reductions in yields
same,HSV-1 virus yield,[2]; 50 µg/ml,reduced yields of all viruses; also recorded: reduction in titers of all viruses
same,zone of antiviral activity (viral plaque inhibition),[13],2 (2 - 20-30 mm)
same,zone of cytotoxicity,[14],2 (2 - 20-30 mm)
same,zone of antiviral activity (viral plaque inhibition),[14],0
Phyllanthostatin I,mean titers compared with controls,"[15]; 0.5 mg/ml, day 4",nearly the same as that in the controls
same,mean virus titers less than placebo treated group,"[15]; 0.5 mg/ml, days 2 and 3",about 0.7 logs
same,mean titer less than the placebo,"[15]; 1 mg/ml, day 1",greater than 2 logs
same,mean virus titers lower than placebo treated controls,"[15]; 1 mg/ml, days 2 through 4",about 0.5 logs
same,Mean virus titer in swabs of mice which shed virus,[15]; [18],2.69 log PFU/ml
same,"Nv/Nt, swabs with virus/total swabs",[15]; [18],9/10
same,Mean virus titer in swabs of mice which shed virus,[15]; [19],1.67 log PFU/ml
same,"Nv/Nt, swabs with virus/total swabs",[15]; [19],4
same,"Nv/Nt, swabs with virus/total swabs","[15]; day 1 after HSV-2 inoc., 1 mg/ml, listed as Phyllanostatin I",6/10
same,Mean virus titer in swabs of mice which shed virus,[15]; [20],3.76 log PFU/ml
same,"Nv/Nt, swabs with virus/total swabs",[15]; [20],10/10
same,Mean virus titer in swabs of mice which shed virus,[15]; [21],3.83 log PFU/ml
same,"Nv/Nt, swabs with virus/total swabs",[15]; [21],8/10
same,Mean virus titer in swabs of mice which shed virus,[15]; [22],3.71 log PFU/ml
same,"Nv/Nt, swabs with virus/total swabs",[15]; [22],10/10
same,Mean virus titer in swabs of mice which shed virus,[15]; [23],3.93 log PFU/ml
same,"Nv/Nt, swabs with virus/total swabs",[15]; [23],8/10
same,Mean virus titer in swabs of mice which shed virus,[15]; [24],4.13 log PFU/ml
same,"Nv/Nt, swabs with virus/total swabs",[15]; [24],10/10
same,Mean virus titer in swabs of mice which shed virus,[15]; [25],3.63 log PFU/ml
same,"Nv/Nt, swabs with virus/total swabs",[15]; [25],8/10
same,Mean virus titer in swabs of mice which shed virus,[15]; [26],(3.98) log PFU/ml
same,"Nv/Nt, swabs with virus/total swabs",[15]; [26],1/1
same,Mean virus titer in swabs of mice which shed virus,[15]; [27],3.47 log PFU/ml
same,"Nv/Nt, swabs with virus/total swabs",[15]; [27],3/5
same,zone of cytotoxicity,[3],2 (2 - 20-30 mm)
same,zone of antiviral activity (viral plaque inhibition),[3],4
same,zone of antiviral activity (viral plaque inhibition),[5],4/4
same,mice survived (of 14),[6]; 8.0 x 10^3 PFU in 0.1 ml,10
same,%S (percent survivors),[6]; [16],71%
same,MDD (mean day of death),[6]; [16],11.8 days
same,mice survived (of 14),[6]; 8.0 x 10^4 PFU in 0.1 ml,4
same,%S (percent survivors),[6]; [17],29%
same,MDD (mean day of death),[6]; [17],7.4 days
same,"protection of mice from lethal genital HSV-2 infection, summary in words",[6],protected mice from lethal infection when the virus inoculum was reduced
same,MDD,[6]; [28],the same as the saline and DMSO saline treated group
same,mice survived,[6]; [28],all of the animals succumed to infection
same,death of mice,"[6]; second study, 8.0 x 10^4 PFU in 0.1 ml, 1 mg/ml",80%
same,zone of antiviral activity (viral plaque inhibition),[7],0
same,ED90 MS,[1],1.64 µg per ml
same,ED90 MS,[1]; 1440 min,1.164 µg per ml
same,HSV-2 virus yield,"[1]; Vero cells, 0.5 µg/ml",most susceptible virus to inhibition
same,HSV-2 virus yield,"[1]; Vero cells, higher drug concentrations (5 and 50 µg/ml) compared with 0.5",further reductions in all virus yields
same,coxsackie A21 virus yield,[8]; 5 µg/ml (below 5 µg per ml),inhibitory for both viruses
same,coxsackie A21 virus yield,"[8]; below 5 µg per ml (i.e., 0.5 or 1), study of b36",reduced titers of coxsackie A21
same,coxsackie A21 virus yield,[8]; [29],further reductions in all virus yields
same,VSV virus yield,[9]; [29],further reductions in all virus yields
same,zone of cytotoxicity,[10],4/4
same,zone of antiviral activity (viral plaque inhibition),[10],4/4
same,coxsackie B3 virus yield,[11]; 5 µg per ml,inhibitory for both viruses
same,coxsackie B3 virus yield,"[11]; below 5 µg per ml (i.e., 0.5 or 1)",unaffected
same,zone of cytotoxicity,[12],4
same,zone of antiviral activity (viral plaque inhibition),[12],0
same,ED90 McIntyre,[2]; listed as Phyllanthostatin,2.3743
same,ED90 McIntyre,[2]; listed as phyllanthostatin I,2.37
same,HSV-1 virus yield,[2]; [29],further reductions in all virus yields
same,zone of antiviral activity (viral plaque inhibition),[13],4/4
same,zone of cytotoxicity,[14],2/2 (2 - 20-30 mm)
same,zone of antiviral activity (viral plaque inhibition),[14],2/2 (2 - 20-30 mm)
